Laboratory results: patent US11299493B2, “Heterocyclic compounds and uses thereof” (NUVATION BIO INC., priority 2017, dated 2022)
Where two headings read alike, the source gives them in different places.

How the values were obtained:
A427 cells = assay: Cytotoxicity assay (resazurin) in A427 cells; format: cell-based; conditions: Homo sapiens, read-out: Cell Viability IC50 A427
Experimental: Cells were allowed to grow at 37° C. for 24 hr in 5% CO2 environment (culture conditions) in a Nuaire incubator (humidified). Serially diluted test compounds (100 μL) within the desired testing concentration ranges were added to the culture plate were further incubated in culture conditions for 72 hr and 96 hr for A427 and A549 respectively. The experiment was terminated at the designated incubation time by replacing the medium with 100 μL of 1 mM of resazurin (R7017; Sigma) prepared in respective culture medium, and the plates were further incubated in culture conditions for 4-6 hr. Fluorescence was recorded using a multimodal plate reader (Biotek Synergy Neo) at an excitation wavelength of 535 nm and emission wavelength of 590 nm to obtain relative fluorescence units. Data analysis was done by subtracting the background fluorescence (only medium blank) value from each reading and then normalizing with the vehicle control (DMSO treated cells) to obtain percent survival/proliferation. Percent survival was then subtracted by 100 to get the percent inhibition of proliferation which was used to calculate IC50 values.

WEE1 kinase enzyme = WEE1 kinase enzyme (Homo sapiens (Human), UniProt P30291); assay: WEE1 IC50 determination, LanthaScreen Terbium Labeled TR-FRET kinase assay; format: biochemical; conditions: WEE1 enzyme 1 nM, ATP 10 μM, 1 h
Chain of WEE1 kinase enzyme (P30291 whole entry): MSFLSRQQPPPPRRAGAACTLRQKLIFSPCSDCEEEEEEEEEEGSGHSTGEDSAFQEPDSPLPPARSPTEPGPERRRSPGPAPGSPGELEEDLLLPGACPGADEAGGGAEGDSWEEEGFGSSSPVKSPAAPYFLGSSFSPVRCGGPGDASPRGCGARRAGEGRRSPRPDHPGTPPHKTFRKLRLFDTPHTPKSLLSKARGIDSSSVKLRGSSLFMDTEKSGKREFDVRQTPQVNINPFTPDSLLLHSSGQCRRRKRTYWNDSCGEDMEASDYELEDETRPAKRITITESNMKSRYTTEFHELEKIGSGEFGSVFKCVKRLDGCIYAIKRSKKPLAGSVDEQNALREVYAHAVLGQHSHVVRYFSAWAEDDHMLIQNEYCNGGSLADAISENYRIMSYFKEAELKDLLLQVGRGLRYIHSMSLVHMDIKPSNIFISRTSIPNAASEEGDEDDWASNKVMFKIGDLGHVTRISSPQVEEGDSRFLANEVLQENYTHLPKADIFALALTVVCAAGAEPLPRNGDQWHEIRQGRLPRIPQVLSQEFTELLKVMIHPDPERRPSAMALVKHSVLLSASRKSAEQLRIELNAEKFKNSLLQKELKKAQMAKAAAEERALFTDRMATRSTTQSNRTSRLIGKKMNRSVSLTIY
Experimental: IC50 values of compounds against WEE1 kinase enzyme were determined by LanthaScreen™ Terbium Labeled TR-FRET assay. […] After 1 h, […] stop solution containing Terbium labeled antibody (4 nM) (#PV3529, Invitrogen, Life Technologies Grand Island, N.Y.) and EDTA (#E5134, Sigma, St-Louis, Mo.) (20 mM) in TR-FRET dilution buffer (#PV3574, Invitrogen, Life Technologies Grand Island, N.Y.) was added. Readings were taken in a Synergy Neo Plate reader (BioTek, Winooski) at single excitation of 340 nm and Dual emission at 495 nm and 520 nm respectively.
The % activity of test samples was calculated as (Sample−Min)*100/(Max−Min). [Max: DMSO control, complete reaction with enzyme & DMSO and Min: No enzyme & DMSO].

Compound | IC50 (A427 cells; A-427, 72 h, A427, 72 hr) [nM] | IC50 (WEE1 kinase enzyme) [nM] | IC50 (A427 cells; A-427, A427, 72 hr) [nM]
CC(C)n1c(=O)c2cnc(Nc3ccc4c(c3)CCNC4(C)C)nc2n1-c1cccc(N(C)S(C)(=O)=O)n1 [Example 2.642] | 2460 | 6 | 
CC(C)n1c(=O)c2cnc(Nc3ccc4c(c3)CNCC4)nc2n1-c1cccc(C(C)(C)C#N)n1 [Example 3.035] | 420 | 2 | 
C=CCn1c(=O)c2cnc(Nc3ccc4c(c3)CNCC4)nc2n1-c1ccnc(C(C)(C)C)c1 [Example 1.158] | 200 | 4 | 
CC(C)n1c(=O)c2cnc(Nc3ccc4c(c3)CNCC4)nc2n1-c1ccn(C2CC2)n1 [Example 2.189] | 1990 | 43 | 
CC(C)n1c(=O)c2cnc(Nc3ccc4c(c3)CCNC4)nc2n1-c1cccc(C(C)(C)C)n1 [Example 1.145] | 255 | 3 | 
CCn1c(=O)c2cnc(Nc3cccc4c3CCNC4)nc2n1-c1cccc(C(C)(C)O)n1 [Example 1.125] | > 30000 | > 5000 | 
CC(C)(C)c1cc(-n2c3nc(Nc4ccc5c(c4)CNCC5)ncc3c(=O)n2C2CC2)ccn1 [Example 1.160] | 3980 | 30 | 
CC(C)(C)c1cc(-n2c3nc(Nc4ccc5c(c4)CNCC5(C)C)ncc3c(=O)n2C2CC2)ccn1 [Example 2.600] |  | 25 | 
CC(C)(C)c1cc(-n2c3nc(Nc4ccc5c(c4)CCNC5)ncc3c(=O)n2C2CC2)ccn1 [Example 1.159] | 3320 | 30 | 
CCn1c(=O)c2cnc(Nc3ccc4c(c3)CNCC4)nc2n1-c1cccc(N2CCCC2=O)n1 [Example 1.31] | 1320 | 5 | 
CC(C)n1c(=O)c2cnc(Nc3ccc4c(c3)CCNC4)nc2n1-c1cccc(N(C)S(C)(=O)=O)n1 [Example 2.645] | 4010 | 5 | 
CCn1c(=O)c2cnc(Nc3ccc4c(c3)CCNC4)nc2n1-c1ccnc(C(C)(C)C)c1 [Example 1.136] | 1090 | 7 | 
CC(C)n1c(=O)c2cnc(Nc3ccc4c(c3)CCNC4)nc2n1-c1ccnc(C(C)(C)F)c1 [Example 1.163] | 720 | 15 | 
CC(C)n1c(=O)c2cnc(Nc3ccc4c(c3)CNCC4)nc2n1-c1cccc(C(C)(C)C)c1 [Example 1.156] | 1770 | 1 | 
CCn1c(=O)c2cnc(Nc3ccc4c(c3)CC(N(C)C)C4)nc2n1-c1cccc(C(C)(C)O)n1 (centres unmarked) [Example 1.133] | 583 | 6 | 
CC(C)n1c(=O)c2cnc(Nc3ccc4c(c3)CNCC4)nc2n1-c1cccc(C2CC2)n1 [Example 1.148] | 1080 | 2 | 
CC(C)n1c(=O)c2cnc(Nc3ccc4c(c3)CNCC4)nc2n1-c1cc(C(C)(C)C)ccn1 [Example 2.287] | 1960 | 120 | 
CCn1c(=O)c2cnc(Nc3ccc4c(c3)CCNC4)nc2n1-c1cccc(C(C)(C)C)n1 [Example 1.131] | 285 | 0.6 | 
CC(C)(C)c1cccc(-n2c3nc(Nc4ccc5c(c4)CNCC5)ncc3c(=O)n2C(C)(C)C)n1 [Example 1.151] | 3380 | 2540 | 
CC(C)n1c(=O)c2cnc(Nc3ccc4c(c3)CCNC4)nc2n1-c1ccsc1 [Example 2.647] | 2650 | 10 | 
CC(C)n1c(=O)c2cnc(Nc3ccc4c(c3)CCNC4)nc2n1-c1cccc(C(C)(C)C#N)n1 [Example 3.036] | 250 | 5 | 
CCn1c(=O)c2cnc(Nc3ccc4c(c3)CNCC4)nc2n1-c1cccc(C(=O)NC)n1 [Example 1.25] | > 30000 | 99 | 
CC(CO)n1c(=O)c2cnc(Nc3ccc4c(c3)CNCC4)nc2n1-c1cccc(C(C)(C)C)n1 (centres unmarked) [Example 1.153] | 2540 | 16 | 
CC(C)n1c(=O)c2cnc(Nc3ccc4c(c3)CNCC4)nc2n1-c1ccc(F)c(C(C)(C)O)c1 [Example 2.186] | 905 | 24 | 

Compound | IC50 (A427 cells; A-427, 72 h, A427, 72 hr) [nM] | IC50 (WEE1 kinase enzyme) [nM] | IC50 (A427 cells; A-427, A427, 72 hr) [nM]
CC(C)(O)c1cccc(-n2c3nc(Nc4ccc5c(c4)CCNC5)ncc3c(=O)n2C2CC2)n1 [Example 1.24] | 6030 | 23 | 
CCn1c(=O)c2cnc(Nc3ccc4c(c3)CNCC4)nc2n1-c1ccccn1 [Example 1.130] | 9070 | 18 | 
CCn1c(=O)c2cnc(Nc3ccc4c(c3)CNCC4)nc2n1-c1cccc(C(F)(F)F)n1 [Example 1.41] | 5120 | 44 | 
CC(C)n1c(=O)c2cnc(Nc3ccc4c(c3)CNCC4)nc2n1-c1ccc(F)cc1 [Example 1.167] | 2060 | 41 | 
CC(C)n1c(=O)c2cnc(Nc3ccc4c(c3)CCNC4)nc2n1-c1cccc(C2CC2)n1 [Example 1.149] | 1130 | 3 | 
CCn1c(=O)c2cnc(Nc3ccc4c(c3)CNC4)nc2n1-c1cccc(C(C)(C)O)n1 [Example 1.132] |  | 4 | 1680
CCn1c(=O)c2cnc(Nc3cnc4c(c3)CNCC4)nc2n1-c1cccc(C(C)(C)O)n1 [Example 1.127] | > 23000 | 58 | 
CC(C)n1c(=O)c2cnc(Nc3ccc4c(c3)CCNC4)nc2n1-c1cccc(C(C)(C)C)c1 [Example 1.155] | 1980 | 2 | 
CCn1c(=O)c2cnc(Nc3cnc4c(c3)CNCC4)nc2n1-c1cccc(C(C)(C)C)n1 [Example 1.141] | 2970 | 24 | 
CC(C)n1c(=O)c2cnc(Nc3ccc4c(c3)CCNC4)nc2n1-c1ccnc(C(C)(C)O)c1 [Example 1.178] | 6200 | 14 | 
CC(C)n1c(=O)c2cnc(Nc3ccc4c(c3)CNCC4)nc2n1-c1cccc(C(C)(C)C)n1 [Example 1.144] | 260 | 0.6 | 
CC(C)n1c(=O)c2cnc(Nc3ccc4c(c3)CCNC4)nc2n1-c1ccn(C)n1 [Example 2.289] | 8760 | 49 | 
CCn1c(=O)c2cnc(Nc3ccc4c(c3)CN(CC(=O)N(C)C)CC4)nc2n1-c1cccc(C(C)(C)O)n1 [Example 1.129] | 865 | 6 | 
CC(C)(C)c1cccc(-n2c3nc(Nc4ccc5c(c4)CNCC5)ncc3c(=O)n2CC(F)(F)F)n1 [Example 1.152] | 1020 | < 1 | 
CC(C)n1c(=O)c2cnc(Nc3ccc4c(c3)CCNC4(C)C)nc2n1-c1ccn(C2CC2)n1 [Example 2.643] | 2180 | 26 | 
CCn1c(=O)c2cnc(Nc3ccc4c(c3)CNCC4)nc2n1-c1ccnc(C(C)(C)C)c1 [Example 1.134] | 820 | 9 | 
CCn1c(=O)c2cnc(Nc3ccc4c(c3)CNCC4)nc2n1-c1cccc(C(C)(C)C)n1 [Example 1.126] | 275 | < 1 | 
CC(C)n1c(=O)c2cnc(Nc3ccc4c(c3)NCCC4)nc2n1-c1ccnc(C(C)(C)F)c1 [Example 1.168] | 4000 | 4150 | 
CC(C)n1c(=O)c2cnc(Nc3ccc4c(c3)CCNC4)nc2n1-c1ccc(F)cn1 [Example 2.290] | 3370 | 90 | 
CC(C)n1c(=O)c2cnc(Nc3ccc4c(c3)CNCC4)cc2n1-c1ccnc(C(C)(C)C)c1 [Example 2.744] | 10400 |  | 
CC(C)n1c(=O)c2cnc(Nc3ccc4c(c3)CCNC4)nc2n1-c1ccn(C(C)(C)C)n1 [Example 2.454] |  | 48 | 
CC(C)n1c(=O)c2cnc(Nc3ccc4c(c3)CCNC4)cc2n1-c1ccnc(C(C)(C)C)c1 [Example 2.732] |  | 179 | 
CC(C)(F)c1cc(-n2c3nc(Nc4ccc5c(c4)CCNC5(C)C)ncc3c(=O)n2C2CC2)ccn1 [Example 2.555] |  | 153 | 
